ChEMBL document CHEMBL3352458, “Discovery of dual death-associated protein related apoptosis inducing protein kinase 1 and 2 inhibitors by a scaffold hopping approach” (J Med Chem, 2014)

What was measured:
[1] = molecular target: T1, Serine/threonine-protein kinase 17B (Homo sapiens, UniProt O94768); assay: Binding affinity to DRAK2 (unknown origin) ATP site
T1 sequence (O94768 whole entry): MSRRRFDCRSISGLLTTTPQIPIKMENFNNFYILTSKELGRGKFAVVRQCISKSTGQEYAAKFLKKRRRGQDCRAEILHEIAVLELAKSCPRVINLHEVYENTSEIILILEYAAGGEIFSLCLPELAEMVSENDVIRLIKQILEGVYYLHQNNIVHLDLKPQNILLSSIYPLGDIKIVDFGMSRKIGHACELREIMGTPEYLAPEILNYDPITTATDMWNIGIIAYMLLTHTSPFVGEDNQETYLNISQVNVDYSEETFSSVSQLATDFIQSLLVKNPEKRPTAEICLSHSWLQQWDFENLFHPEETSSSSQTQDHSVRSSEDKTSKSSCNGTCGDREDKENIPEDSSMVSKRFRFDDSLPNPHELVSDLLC

[2] = molecular target: T1, Serine/threonine-protein kinase 17B; assay: Inhibition of DRAK2 (unknown origin) using 33P-ATP after 30 mins by Trilux scintillation counting
[3] = molecular target: T1, Serine/threonine-protein kinase 17B; assay: Inhibition of DRAK2 (unknown origin) using 50 uM ATP by biochemical assay
[4] = molecular target: T1, Serine/threonine-protein kinase 17B; assay: Inhibition of DRAK2 (unknown origin) using 100 uM ATP by biochemical assay
[5] = molecular target: T1, Serine/threonine-protein kinase 17B; assay: Inhibition of DRAK2 (unknown origin) using 1 uM ATP by biochemical assay
[6] = molecular target: T1, Serine/threonine-protein kinase 17B; assay: Inhibition of DRAK2 (unknown origin) using 250 uM ATP by biochemical assay
[7] = molecular target: T1, Serine/threonine-protein kinase 17B; assay: Inhibition of DRAK2 (unknown origin) using 500 uM ATP by biochemical assay
[8] = molecular target: T1, Serine/threonine-protein kinase 17B; assay: Inhibition of DRAK2 (unknown origin) using 10 uM ATP by biochemical assay
[9] = molecular target: T1, Serine/threonine-protein kinase 17B; assay: Inhibition of DRAK2 (unknown origin) using 5 uM ATP by biochemical assay
[10] = molecular target: T1, Serine/threonine-protein kinase 17B; assay: Inhibition of DRAK2 (unknown origin) using 25 uM ATP by biochemical assay

Question: For `COc1ccc(-c2cnc3snc(NC(=O)C4CCC4)c3c2)cc1OC`, which Kd [1] is on record?
Answer: 1.6 µM

Question: How did the Kd [1] turn out when `COc1ccc(-c2cnc3snc(NC(=O)C4CCNCC4)c3c2)cc1OC` was run?
Answer: 7.2 µM

Question: Which Kd [1] does the source give for `COc1ccc(-c2cnc3snc(NC(=O)C4CCCC4)c3c2)cc1OC` here?
Answer: 2.2 µM

Question: Which Kd [1] does the source give for `COc1ccc(-c2ccc3snc(NC(=O)C4CCCCC4)c3c2)cc1OC` here?
Answer: 2.7 µM

Question: For `COc1ccc(-c2cnc3[nH]cc(NC(=O)C4CCCCC4)c3c2)cc1OC`, which Kd [1] is on record?
Answer: 0.033 µM

Question: With `COc1ccc(-c2cnc3snc(NC(=O)C4CCCCCC4)c3c2)cc1OC` as the molecule, how does the Kd [1] read?
Answer: 0.53 µM

Question: `O=C(Nc1nsc2ncc(-c3ccsc3)cc12)C1CCCCC1` was tested. Which Kd [1] did it give?
Answer: 1.6 µM

Question: Which Kd [1] does the source give for `COc1ccc(-c2cnc3scc(NC(=O)C4CCCCC4)c3n2)cc1OC` here?
Answer: 0.027 µM

Question: What about the IC50 [2] of the same molecule?
Answer: 1.78 µM

Question: How did the Kd [1] turn out when `COc1ccc(-c2cnc3ncnc(NC(=O)C4CCCCC4)c3n2)cc1OC` was run?
Answer: 0.18 µM

Question: With `COc1ccc(-c2ccc3scc(NC(=O)C4CCCCC4)c3c2)cc1OC` as the molecule, how does the Kd [1] read?
Answer: 0.51 µM

Question: With `COc1cc(-c2cnc3snc(NC(=O)C4CCCCC4)c3c2)ccc1N` as the molecule, how does the Kd [1] read?
Answer: 0.66 µM

Question: With `O=C(Nc1nsc2ncc(-c3ccc(O)cc3)cc12)C1CCCCC1` as the molecule, how does the Kd [1] read?
Answer: 3.2 µM

Question: With `COc1ccc(-c2cnc3scc(NC(=O)C4CCCCC4)c3c2)cc1OC` as the molecule, how does the IC50 [3] read?
Answer: 0.72 µM

Question: And the IC50 [4]?
Answer: 0.99 µM

Question: And the IC50 [5]?
Answer: 0.37 µM

Question: What about the IC50 [6] of the same molecule?
Answer: 1.47 µM

Question: And the Kd [1]?
Answer: 0.009 µM

Question: And the IC50 [7]?
Answer: 2.22 µM

Question: What about the IC50 [8] of the same molecule?
Answer: 0.53 µM

Question: What about the IC50 [9] of the same molecule?
Answer: 0.51 µM

Question: And the IC50 [2]?
Answer: 0.86 µM

Question: And the IC50 [10]?
Answer: 0.65 µM

Question: `COc1cc(-c2cnc3snc(NC(=O)C4CCCCC4)c3c2)ccc1O` was tested. Which Kd [1] did it give?
Answer: 2 µM

Question: `COc1ccc(-c2cnc3snc(NC(=O)C4CCCCC4)c3c2)cc1OC` was tested. Which Kd [1] did it give?
Answer: 1.6 µM

Question: How did the Kd [1] turn out when `O=C(Nc1nsc2ncc(-c3cccs3)cc12)C1CCCCC1` was run?
Answer: 1.9 µM

Question: With `COc1ccc(-c2ccc3onc(NC(=O)C4CCCCC4)c3c2)cc1OC` as the molecule, how does the Kd [1] read?
Answer: 0.96 µM

Question: With `Nc1cccc(-c2cnc3snc(NC(=O)C4CCCCC4)c3c2)c1` as the molecule, how does the Kd [1] read?
Answer: 2.3 µM
